From PMC6792352, “Limited Chemical Structural Diversity Found to Modulate Thyroid Hormone Receptor in the Tox21 Chemical Library” (Environmental Health Perspectives, 2019)
Counter-ions that a name gives are not always drawn.

Test: in vitro
Details: rat, gh3-tre-luc cells

| Compound | CC50 at 24 h (AC50 (uM) modified / 1000) [µM] | also measured |
| --- | --- | --- |
| CCOC(=O)[C@H](CCc1ccccc1)N[C@H]1CCCN2CCC[C@@H](C(=O)O)N2C1=O [Cilazapril] | > 50 |  |
| C=C[Si]1(C)O[Si](C)(C=C)O[Si](C)(C=C)O[Si](C)(C=C)O1 (stereo not shown) [1,3,5,7-Tetramethyl-1,3,5,7-tetravinylcyclotetrasiloxane] |  | CC50 at 24 h (AC50 (uM) modified / 1000, Tox21_110001=Tox21_301527, viability, 1 nM T3 present, 24 h): > 90 µM |
| NS(=O)(=O)c1cc(C(=O)O)cc(N2CCCC2)c1Oc1ccccc1 [Piretanide] | > 20 |  |
| CN1C(=O)[C@@H](NC(=O)c2cc3ccccc3[nH]2)N=C(c2ccccc2)c2ccccc21 [Devazepide] | > 50 |  |
| CCCCCCCC(=O)Oc1c(Br)cc(C#N)cc1Br [Bromoxynil octanoate] | > 90 |  |
| CCCCC/C=C\CCC=O [(4Z)-4-Decenal] | > 90 |  |
| Oc1ccc2c3c1O[C@H]1[C@@H](O)C=C[C@H]4[C@@H](C2)NCC[C@@]341 [Normorphine] |  | CC50 at 24 h (AC50 (uM) modified / 1000, Tox21_110001=Tox21_113540, viability, 1 nM T3 present, 24 h): > 50 µM |
| C1CCC(C(CC2CCCCN2)C2CCCCC2)CC1 (stereo not shown) [Perhexiline maleate] | 4.32 |  |
| CCC1(CC)C(=O)C=CNC1=O [Pyrithyldione] |  | CC50 at 24 h (AC50 (uM) modified / 1000, Tox21_110001=Tox21_110368, viability, 1 nM T3 present, 24 h): > 50 µM |
| O=C(Cl)c1cc(Cl)cc(Cl)c1 [3,5-Dichlorobenzoyl chloride] | > 90 |  |
| CN1CCCC1 [N-Methylpyrrolidine] | > 90 |  |
| CC(=O)[C@H]1[C@H](C#N)C[C@H]2[C@@H]3CC=C4C[C@@H](O)CC[C@]4(C)[C@H]3CC[C@@]21C [Pregnenolone carbonitrile] | > 60 |  |
| O=C(O)COC(=O)Cc1ccccc1Nc1c(Cl)cccc1Cl [Aceclofenac] | > 20 |  |
| O=C(O)Cc1ccccc1 [Phenylacetic acid] |  | CC50 at 24 h (AC50 (uM) modified / 1000, Tox21_110001=Tox21_113042, viability, 1 nM T3 present, 24 h): > 50 µM; CC50 at 24 h (AC50 (uM) modified / 1000, Tox21_110001=Tox21_200533, viability, 1 nM T3 present, 24 h): > 90 µM |
| Cc1ccc(O)c(N)c1 [2-Amino-4-methylphenol] | 33.5 |  |
| CCC(C)(S(=O)(=O)CC)S(=O)(=O)CC [Sulfonethylmethane] |  | CC50 at 24 h (AC50 (uM) modified / 1000, Tox21_110001=Tox21_112153, viability, 1 nM T3 present, 24 h): > 50 µM |
| CN(C)CCN(C)CCN(C)C [1,1,4,7,7-Pentamethyldiethylenetriamine] | > 90 |  |
| O=C(O)CCC(=O)C(=O)O [alpha-Ketoglutaric acid] | > 90 |  |
| CN1CCCC(=C(c2cccs2)c2cccs2)C1 [Tipepidine] |  | CC50 at 24 h (AC50 (uM) modified / 1000, Tox21_110001=Tox21_112428, viability, 1 nM T3 present, 24 h): > 50 µM |
| C=C/C(C)=C/C/C=C(\C)CCC=C(C)C [alpha-Farnesene] | > 90 |  |
| O=C(O)CCC(=O)OC[C@@H](NC(=O)C(Cl)Cl)[C@H](O)c1ccc([N+](=O)[O-])cc1 [Chloramphenicol sodium succinate] | > 50 |  |
| CC(=O)NCCCS(=O)(=O)O [Acamprosate calcium] | > 40 |  |
| Cc1cc2c(cc1S(N)(=O)=O)S(=O)(=O)CCC2 [Meticrane] | > 20 |  |
| CCCCCCCCCCCCCCCCOS(=O)(=O)O [Sodium hexyldecyl sulfate] | 50.6 |  |

| Compound | CC50 at 24 h (AC50 (uM) modified / 1000) [µM] | also measured |
| --- | --- | --- |
| CC(CO)(CO)CO [2-(Hydroxymethyl)-2-methyl-1,3-propanediol] | > 90 |  |
| CC(C)CCCCCOC(=O)CS [Isooctyl 2-mercaptoacetate] | > 90 |  |
| Nc1cc(C(=O)O)c(O)c(S(=O)(=O)O)c1 [5-Amino-3-sulfosalicylic acid] | > 90 |  |
| Nc1ccc(O)c(C(=O)O)c1 [5-Aminosalicylic acid] | > 50 |  |
| C/C=C/C=O [Crotonaldehyde] | > 90 |  |
| CC(=O)N[C@@H]([C@@H](O)[C@H](O)[C@H](O)CO)[C@@H](O)CC(=O)C(=O)O [Aceneuramic acid] | > 50 |  |
| O=[N+]([O-])c1ccc2[nH]ncc2c1 [5-Nitroindazole] | > 90 |  |
| CN(C)CCCNCCCN [Dimethyldipropylenetriamine] | > 90 |  |
| N[C@@H](Cc1ccc(O)cc1)C(=O)O [L-Tyrosine] | > 50 |  |
| CC(CN(C)C)CN1c2ccccc2Sc2ccc(C(F)(F)F)cc21 (stereo not shown) [Trifluomeprazine 2-butenedioate] | 9.4 |  |
| CC(=O)OCCc1ccccc1 [2-Phenylethyl acetate] | > 90 |  |
| Cc1ccc(N(CCO)CCO)cc1 [2,2'-[(4-Methylphenyl)imino]diethanol] | > 90 |  |
| O=c1oc2c(O)c(O)cc3c(=O)oc4c(O)c(O)cc1c4c23 [Ellagic acid] | > 50 |  |
| CC/C=C(\C(=O)N[C@@H]1C(=O)N2C(C(=O)OCOC(=O)C(C)(C)C)=C(COC(N)=O)CS[C@H]12)c1csc(N)n1 [Cefcapene pivoxil hydrochloride] | > 50 |  |
| CC(C)(CO)C(O)C(=O)NCCCO (stereo not shown) [Panthenol] | > 90 |  |
| ClC1C(Cl)C(Cl)C(Cl)C(Cl)C1Cl (stereo not drawn) [alpha-1,2,3,4,5,6-Hexachlorocyclohexane] | > 90 |  |
| Cc1cccc2ccccc12 [1-Methylnaphthalene] | > 90 |  |
| C=C(C)C(=O)OCCC[Si](OC)(OC)OC [3-(Trimethoxysilyl)propyl methacrylate] | > 90 |  |
| CN(C)CCc1c[nH]c2ccc(O)cc12 [Bufotenine] |  | CC50 at 24 h (AC50 (uM) modified / 1000, Tox21_110001=Tox21_112890, viability, 1 nM T3 present, 24 h): > 90 µM |
| N#CCC#N [Propanedinitrile] |  | CC50 at 24 h (AC50 (uM) modified / 1000, Tox21_110001=Tox21_301196, viability, 1 nM T3 present, 24 h): 40.5 µM |
| Cc1cccc(C)c1OCC(=O)N[C@@H](Cc1ccccc1)[C@@H](O)C[C@H](Cc1ccccc1)NC(=O)[C@H](C(C)C)N1CCCNC1=O [Lopinavir] | 24.6 |  |
| CCCCCCCC[Si](OCC)(OCC)OCC [Triethoxyoctylsilane] | > 90 |  |
| CC1CC(C)C(=O)C1=O (stereo not shown) [3,5-Dimethyl-1,2-cyclopentanedione] | > 90 |  |
| O=C1OC(=O)C2C1C1(Cl)C(Cl)=C(Cl)C2(Cl)C1(Cl)Cl (stereo not shown) [Chlorendic anhydride] | > 90 |  |

| Compound | CC50 at 24 h (AC50 (uM) modified / 1000) [µM] | also measured |
| --- | --- | --- |
| CC(C)[N+](C)(CCC(C(N)=O)(c1ccccc1)c1ccccc1)C(C)C [Isopropamide] | > 20 |  |
| CC(=O)CCC(=O)O [4-Oxopentanoic acid] | > 100 |  |
| O=C(O)Cc1ccc(OCCNC[C@H](O)c2ccccc2)cc1 [ZD 2079] | > 50 |  |
| Oc1ccc2c(c1)Cc1ccccc1-2 [2-Hydroxyfluorene] | 77.9 |  |
| O=C(O)Cc1cccc(-c2cc(CCCCCCc3ccc(O[C@H]4O[C@H](CO)[C@@H](O)[C@H](O)[C@@H]4O)c(-c4cccc(CC(=O)O)c4)c3)ccc2O[C@H]2O[C@H](CO)[C@@H](O)[C@H](O)[C@@H]2O)c1 [Bimosiamose] | > 50 |  |
| CCCCCCCCCCCCCCCCCBr [1-Bromoheptadecane] | > 20 |  |
| CCOC(=O)[C@H](CCc1ccccc1)N[C@@H](C)C(=O)N1Cc2cc(OC)c(OC)cc2C[C@H]1C(=O)O [Moexipril hydrochloride] | > 50 |  |
| C[C@H]1[C@H](c2ccc(Cl)cc2)SC(=O)N1C(=O)NC1CCCCC1 [Hexythiazox] |  | CC50 at 24 h (AC50 (uM) modified / 1000, Tox21_110001=Tox21_301050, viability, 1 nM T3 present, 24 h): 67.8 µM |
| C=CCOC(=O)CCC1CCCCC1 [Prop-2-en-1-yl 3-cyclohexylpropanoate] | > 90 |  |
| OCC1CC=CCC1 (stereo not shown) [Cyclohex-3-en-1-ylmethanol] | > 90 |  |
| Cc1cccc(CN2CCN(C(c3ccccc3)c3ccc(Cl)cc3)CC2)c1 (stereo not shown) [Meclozine dihydrochloride] | 15.6 |  |
| CCC1=C[C@@H]2CN(C1)Cc1c([nH]c3ccccc13)[C@@](C(=O)OC)(c1cc3c(cc1OC)N(C)[C@H]1[C@@](O)(C(=O)OC)[C@H](OC(C)=O)[C@]4(CC)C=CCN5CC[C@]31[C@@H]54)C2 [Vinorelbine tartrate] | 6.67 |  |
| O=C1CCCCCCCCCCCCCCO1 [Pentadecan-15-olide] | > 90 |  |
| O=C1c2ccccc2C(=O)c2ccccc21 [Anthraquinone] | > 50 |  |
| C1CCCNCC1 [Hexamethyleneimine] | > 100 |  |
| NC(=O)C[S+]([O-])C(c1ccccc1)c1ccccc1 (stereo not shown) [Modafinil] |  | CC50 at 24 h (AC50 (uM) modified / 1000, Tox21_110001=Tox21_111470, viability, 1 nM T3 present, 24 h): > 50 µM |
| CCC(=O)OC(C)c1ccccc1 (stereo not shown) [1-Phenylethyl propionate] | > 90 |  |
| CCC12COCN1COC2 [Oxazolidine-E] | > 90 |  |
| CCOC(=O)c1ccc(I)cc1 [Ethyl 4-iodobenzoate] | > 90 |  |
| Oc1cccc2ccccc12 [1-Naphthol] | > 90 |  |
| C=C[C@H]1C[N@@]2CC[C@H]1C[C@H]2[C@H](O)c1ccnc2ccc(OC)cc12 [Quinine hemisulfate salt monohydrate] | > 50 |  |
| Cc1cccc2cccnc12 [8-Methylquinoline] | > 90 |  |
| CC(C)(C)S [2-Methyl-2-propanethiol] | > 90 |  |
| NC[C@@H]1O[C@H](O[C@H]2[C@@H](O)[C@H](O[C@@H]3[C@@H](O)[C@H](N)C[C@H](N)[C@H]3O[C@H]3O[C@H](CN)[C@@H](O)[C@H](O)[C@H]3N)O[C@@H]2CO)[C@H](N)[C@@H](O)[C@@H]1O [Neomycin sulfate] | > 50 |  |
